Data set [1] has as its system Chorion-Allantois-Membran. Kind of data set: HET-CAM, preclinical tolerability. Details: species or system Gallus gallus domesticus. The method, then: Als Screening hinsichtlich der Hautverträglichkeit der Keratinpartikel wurde dieses in eine halbfeste Formulierung eingearbeitet und an der Chorion-Allantois-Membran von acht- bis neuntägigen Gallus gallus domesticus Embryonen (Rasse: New Hampshire) getestet.
Die Hautverträglichkeit der Keratinpartikel wurde an der Chorion-Allantois-Membran von acht- bis neuntägigen Hühnerembryonen getestet. Befruchtete Hühnereier wurden hierfür acht bis neun Tage lang bei 37°C und 55 % Luftfeuchtigkeit bebrütet. Alle 12 Stunden wurden die Eier gewendet, ausgenommen die letzten 24 Stunden vor Versuchsbeginn. Die Öffnung der Eier wurde an den nach oben gerichteten Eierpolen durchgeführt, wofür die Eierschalen kreisrund (Ø 1,5 cm) geöffnet wurden. Nach dem Abnehmen der Eischalen wurden die Eihäute mit einer 37°C warmen 0,9%-igen NaCl-Lösung befeuchtet. Anschließend wurden unter der Sterilbank die äußeren Eihäute mittels Schere und Pinzette entfernt und die Chorion-Allantois-Membranen freigelegt. […] Die halbfeste Keratinpartikel-haltige Formulierung konnte nun an den gut ausgebildeten und unbeschädigten Blutgefäßen der Chorion-Allantois-Membranen aufgetragen und getestet werden. Das Testpräparat wurde an insgesamt sechs Eiern getestet, maximal 30 Minuten nach der Öffnung der Eier.
Im Rahmen der HET-CAM Untersuchungen wurden von dem Testpräparat (2,88 mg/ml kolloidale Keratin-Lösung in 0,5 % Hydoxyethylcellulose-Gel) je 200 µl auf die Chorion-Allantois-Membran appliziert und diese für insgesamt 300 Sekunden beobachtet. Während dieser Zeit wurden die Veränderungen an der Membran, hinsichtlich des Zeitpunktes des Auftretens (Irritationsscore, IS) und der Festlegung des Schweregrades zum Ende der Beobachtungszeit, dokumentiert. Hierbei wurden folgende Kriterien bewertet: Hämorrhagien (H) - das Auftreten von Blutungen; Gefäßlyse (L) - das Transparentwerden von Gefäßen und Koagulation (C) - das Stagnieren des Blutflusses als Zeichen der intravasalen Gerinnung. Als Negativkontrolle wurde steriles Wasser und als Positivkontrolle eine 1 %-ige Natriumlaurysulfat-Lösung eingesetzt. Die Berechnung des Irritationsscores (IS) erfolgte anhand der ICCVAM-Kriterien.
Als Bewertungskriterien des ISs wurden folgende Grenzwerte definiert:
Der Schweregrad von Veränderungen zum Ende des Beobachtungszeitraums wurde nach den folgenden Kriterien eingestuft:
Die Hämorrhagie (H) wurde entsprechend des Ausmaßes von Erythrozytenextravasaten den Kategorien halbquantitativ wie folgt zugeordnet: Einzelne Kapillarblutungen bei morphologisch intakten Kapillaren wurden als leichte, multiple Kapillarblutungen bei morphologisch intakten Kapillaren als mäßige und morphologisch geschädigte Kapillaren mit Kapillarblutungen oder Massenblutungen als schwere Hämorrhagie eingestuft. Vereinzelte transparente Kapillarabschnitte wurden als leichte, die Transparenz von ganzen Kapillaren als mäßige und das Auftreten von kompletten Gefäßlysen als schwere Lyse bewertet. Die Koagulation (C) wurde entsprechend des Ausmaßes von Koagulationsphänomenen den Kategorien halbquantitativ wie folgt zugeordnet: Einzelne Kapillarthrombosen bei morphologisch intakten Kapillaren wurden als leichte, multiple Kapillarthrombosen bei morphologisch intakten Kapillaren als mäßige und geschädigte Kapillaren mit langstreckigen Kapillarthrombosen als schwere C eingestuft. Die eingesetzten Hühnereier wurden nach einer Lagerung für 48 Stunden bei -20°C, hygienisch entsorgt. Tab.

A short description of data set [2]: Penetration kinetics of Mometasonfuroat, Franz diffusion cell, HPLC. Type of data set: in vitro ADME, human. As for the experimental part: Um den Einfluss von monomerem beta-Keratin auf die Pharmakokinetik von Wirkstoffen nachzuweisen, wurde in einer halbfesten Cremematrix (Monovo® 1 mg/g Creme) gelöstes Mometasonfuroat, als Modellwirkstoff mit 2% Keratinpartikeln versetzt und zur Ausbildung von nicht-kovalenten Proteine-Wirkstoff-Konjugaten homogen verrührt und inkubiert. Zur Objektivierung der pharmakokinetischen Unterschiede wurde eine Diffusionskinetik der Formulierung ohne und mit Beimischung von Keratinpartikeln vergleichend bestimmt.
In der vorliegenden Studie wurde eine HPLC-Methode zur Quantifizierung von Mometasonfuroat in Proben aus der Penetrationsstudie verwendet. Es wurde eine analytische HPLC-UV-Methode entwickelt und validiert. Zur Bestimmung der Wiederfindung wurden dazu 3 Proben der Prüfformulierung mit 1,8 mL Lösungsmittel 1 h lang inkubiert (Laborschüttler, 150 U/min), anschließend zentrifugiert (13.000 U/min, 10 min) und gemessen. Die Wiederfindungsraten wurden mit den experimentell ermittelten Konzentrationen der Prüfgegenstände berechnet. Werte zwischen 95 % und 105 % wurden als unbeeinflusst und damit als korrekt angenommen.
Für jede Testformulierung wurden drei Humanhautproben, d. h. von drei verschiedenen Spendern untersucht. Jede Hautprobe ergab drei Stanzbiopsien zu drei verschiedenen Zeitpunkten, d. h. insgesamt […] Proben je Testformulierung. […]

Where [3] appears, read: summary Tab. 7, mean severity after 300 s.

With `CCCCCCCCCCCCOS(=O)(=O)O` [1 % Natriumlaurylsulfat-Lösung, Natriumlaurylsulfat], in data set [1] (summary Tab. 7), the IS-C is 6,01, the IS-Gesamt is recorded as 9,80, the IS-H was 2,89 and the IS-L is 0,90. For the same compound, in data set [1] (setting [3]), the SG-C is 3,00, the SG-H is 1,67 and the SG-L was 0,42.

Consider `C[C@@H]1C[C@H]2[C@@H]3CCC4=CC(=O)C=C[C@]4(C)[C@@]3(Cl)[C@@H](O)C[C@]2(C)[C@@]1(OC(=O)c1ccco1)C(=O)CCl` [Mometasonfuroat], for which, in data set [2], the “kutane Bioverfügbarkeit” value was “keinen relevanten Einfluss”.

(Values after patent publication EP4659739A9, “TOPICAL FORMULATION COMPRISING NON-COVALENT KERATIN-ACTIVE AGENT CONJUGATES FOR THERAPEUTIC USE” (Rigi Therapeutics AG, priority 2024, dated 2025).)
